Experimental data taken from article PMC7330483, “Identification of a Broad-Spectrum Viral Inhibitor Targeting a Novel Allosteric Site in the RNA-Dependent RNA Polymerases of Dengue Virus and Norovirus” (Frontiers in Microbiology, 2020).
pEC50, pIC50, pKd: −log10 of the molar value. “Also recorded” adds a separate entry of the source.

How the values were obtained:
DENV RdRp [1] = target: DENV RdRp; design: method as in Noble et al., 2016; settings: ref Noble et al., 2016; read-out: KD DENV RdRp (literature); cited from earlier work
DENV RdRp [2] = target: T1, DENV RdRp (Dengue virus type 3, UniProt Q6YMS4); experiment: DENV-RdRp inhibition assay (PicoGreen dsRNA formation); assay type: biochemical; design: RdRp gens of DENV; inferred from Ni-NTA purification and the pET-21a(+) vector); made in house; host or cells: Escherichia coli BL21; settings: 40 μM compound
Description: Polymerase activity was measured by detecting the formation of double-stranded RNA (dsRNA) using the fluorescent dye PicoGreen ([Singer et al., 1997]). RdRp assays were performed in a black 96-well plates, which protects reaction mixture from light. In vitro RNA synthesis assays were performed using a single-stranded RNA poly(C) as template and GTP as substrate in a 25 μL reaction mixture. 5 μL of DENV-RdRp (20 μM), dissolved in a reaction buffer containing 20 mM Tris–HCl (pH 7.4), 2.5 mM MnCl2, 5 mM DTT, was incubated with 1 μL of 1 mM compound (RAI-5, RAI-13, RAI-14, and JF-31-MG46 served as positive control) or the compound vehicle DMSO at 30°C for 10 min. Subsequently, 1 μL of 1 mg/mL poly(C) and 2 μL of 625 μM GTP were added into the mixture for 60 min at 30°C. The final concentrations of the reaction components are 4 μM DENV-RdRp, […], 50 μM GTP, 40 μM compound, 4% DMSO, […] (pH 7.4), 2.5 mM MnCl2 and 5 mM DTT. The reaction was terminated with 10 mM EDTA. After that, 175 μL of fluorescent dye PicoGreen, diluted 200-fold with TE buffer, was added to each well for 5 min at room temperature. Microplate reader was used to quantify the amount of dsRNA at standard wavelengths (excitation 480 nm, emission 520 nm).

hNV-RdRp = hNV-RdRp inhibition assay (PicoGreen dsRNA formation); assay type: biochemical, Norovirus GII.4 Sydney 2012; settings: dose response, two-fold dilutions
[3] = system: Gaussia luciferase (Gluc); experiment: Effect on Gluc activity in pcDNA-Gluc transfected Huh7.5.1 cells (negative control); assay type: cell-based; settings: concentrations up to 5 μM, 48 h
A549 cells = experiment: Cytotoxicity analysis (Cell Counting kit-8), A549; assay type: cell-based; settings: up to 10 μM, 48 h, CCK-8
Description: (§1) Twenty-four hour prior to the cytotoxicity assay, 4 × 10^4 RAW264.7 or A549 cells were seeded in 96-well plates. After that, 2-fold serial dilutions (from 0.625 to 40 μM) of RAI-13 were added to the cells. Cells treated with DMSO were served as the control. Cells were cultivated for 48 h, after that the cell viability was assessed by Cell Counting kit-8.

[4] = Cytotoxicity analysis (Cell Counting kit-8), A549; assay type: cell-based; settings: human, A549 cells, CCK-8
Description: as §1

Jc1-Gluc HCVcc = experiment: Infection assay with Jc-1-Gluc HCVcc in Huh7.5.1 cells; assay type: cell-based, hepatitis C virus (HCV); settings: Hepatitis C virus
Description: 2 × 10^4 per well Huh7.5.1 cells were seeded into 96-well plates for 24 h, and then cells were incubated with RAI-13 (1 μM) and Jc1-Gluc HCVcc at an MOI of 1 for 4 h. Next, the culture supernatants were replaced by Fresh medium with 1 μM RAI-13. After 48 h, we measured the amounts of infectious Jc1 HCVcc in the supernatant by detecting the activity of Gaussia luciferase (Gluc), using a Centro XS3 LB 960 luminometer.

VSV-G/HIV-Fluc = assay type: cell-based, human immunodeficiency viruses type 1 (HIV-1)
[5] = oral, rat; no reference given; cited from earlier work
DENV2 (Tr1751) = experiment: Infection assay with DENV2 in A549 cells (qRT-PCR); assay type: cell-based
Description: 5 × 10^5 per well A549 cells were seeded into 6-well plates for 24 h, and infected with DENV2 (Tr1751) at an MOI of 0.1 in the presence of RAI-13 with 2-fold dilutions (from 0.08 to 20 μM) for 4 h. The culture supernatants were replaced by Fresh medium with RAI-13 with 2-fold dilutions. Cells were harvested at 48 h.p.i. The RNA extraction kit was used to extract total RNA. The level of viral RNA was determined by qRT-PCR analysis through one-step SYBR PrimeScript RT-PCR kit ([Yi et al., 2019]). The primer pair (forward: 5′-[…]-3′ and reverse: 5′-[…]-3′) amplifies partial envelop protein E gene of DENV2. The Forward and Reverse primers were also, respectively, used for minus-strand and plus-strand RNA reverse transcription. Human glyceraldehyde-3-phosphate dehydrogenase (hGAPDH) was served as an internal control and amplified with primers 5′-ATCA[…]-3′ and 5′-[…]-3′.

MNV(SH1603) = experiment: Infection assay with MNV in RAW264.7 cells (qRT-PCR); assay type: cell-based, murine norovirus (MNV)
hNV RdRp = experiment: Bio-layer interferometry (BLI) binding assay, hNV RdRp; settings: read-out: KD hNV RdRp, 1:1 binding model, global fit
RAW264.7 cells = experiment: Cytotoxicity analysis (Cell Counting kit-8), RAW264.7; assay type: cell-based; settings: up to 10 μM, 48 h, CCK-8
Description: as §1

[6] = as above; assay type: cell-based; settings: mouse, RAW264.7 cells, CCK-8
Description: as §1

DENV RdRp [7] = target: T1, DENV RdRp; experiment: Bio-layer interferometry (BLI) binding assay, DENV RdRp

COc1ccc(CC(=O)O)cc1-c1ccccc1 [JF-31-MG46, 2-(4-methoxy-3-phenyl-phenyl)ethanoic acid]
pKd (DENV RdRp [1]): 3.68

O=c1[nH]c2ccccc2n1C1CCN(Cc2ccc(-c3nc4cc5[nH]cnc5cc4nc3-c3ccccc3)cc2)CC1 [RAI-5, AKT inhibitor VIII]
inhibitory effect on DENV RdRp activity (DENV RdRp [2]): no inhibitory effect | pIC50 (hNV-RdRp): 4.33

CN1CCN(c2ccc(C(=O)Nc3n[nH]c4ccc(Cc5cc(F)cc(F)c5)cc34)c(NC3CCOCC3)c2)CC1 [RAI-13, Entrectinib]
inhibitory effect on DENV RdRp activity (DENV RdRp [2]): markedly inhibited | effect on Gluc activity [3]: no inhibitory effect | cytotoxic effect on A549 cells (A549 cells): No cytotoxic effect; also recorded: did not observe apparent cytotoxicity | CC50 at 48 h [4]: 20.8 µM | inhibition at 1 µM (Jc1-Gluc HCVcc; Huh-7.5.1, 48 h, read-out: inhibition of Jc1 HCVcc infection): 95% | inhibition at 2 µM (Jc1-Gluc HCVcc; Huh-7.5.1, read-out: inhibition of HCV infection (abstract)): 95% | pIC50 (hNV-RdRp): 4.33 | inhibition of HIV-1 (VSV-G/HIV-Fluc) infection (VSV-G/HIV-Fluc): did not show any inhibition effect | LD50 [5]: above 2000 mg/kg | plus-strand and minus-strand RNA levels of DENV2 (DENV2 (Tr1751); 2 μM, infected A549 cells): inhibits the synthesis of both plus-strand and minus-strand RNA | pIC50 (DENV2 (Tr1751); Dengue virus, DENV2, A549, read-out: IC50 inhibition of DENV2 infection (abstract)): 5.61 | pEC50 (DENV2 (Tr1751); Dengue virus, A549 cells, 48 h, DENV2 RNA by qRT-PCR, read-out: EC50 inhibition of DENV2 infection): 5.61 | plus-strand and minus-strand RNA levels of MNV (MNV(SH1603); 2.5 μM, infected RAW264.7 cells): inhibits the synthesis of both plus-strand and minus-strand RNA | pIC50 (MNV(SH1603); Norwalk virus, RAW264.7, in abstract, read-out: IC50 inhibition of MNV infection (abstract)): 5.70 | pEC50 (MNV(SH1603); Norwalk virus, RAW264.7 cells, 48 h, MNV RNA by qRT-PCR, read-out: EC50 inhibition of MNV infection): 5.70 | pKd (hNV RdRp): 4.40 | cytotoxic effect on RAW264.7 cells (RAW264.7 cells): No cytotoxic effect; also recorded: did not observe apparent cytotoxicity | CC50 at 48 h [6]: 13.2 µM | pKd (DENV RdRp [7]): 3.78

Cc1ccc(NC(=O)Nc2cc(C(F)(F)F)ccc2F)cc1Nc1ccc2c(c1)NC(=O)/C2=C\c1ccc[nH]1 [RAI-14, GNF-5837]
inhibitory effect on DENV RdRp activity (DENV RdRp [2]): no inhibitory effect | pIC50 (hNV-RdRp): 4.34
